Where two headings read alike, the source gives them in different places.
Legend:
drug induced ataxia mice = test: Effect on drug induced (cytosine arabinoside) ataxia mice, open-field test; assay type: in vivo; conditions: for Falling Index (falling score/movement score) / Movement Score: 30 min after administration, observed 30 min, mean ± standard error
Description: Ataxia mice prepared by repeated administration of cytosine arabinoside 50 mg/kg into male mice, 1, 2 and 3-day old, respectively, were used at 6-7-week old in the experiments (Simada, M. et al. Arch. Neurol., 32, 555-559, 1975 and Matsui, K. et al. Exp. Anim., 32, 13-19, 1983).
Improving effects of drugs on ataxia were evaluated according to the methods of Yamamoto et al. (Yamamoto and Shimizu, Eur. J. Pharmacol. 1.66, 295-297, 1989) and Matsui et al. (Matsui et al. Eur. J. Pharmacol., 254, 295-297, 1994; Neurosci. Lett., 212, 115-118, 1996) as follows.
(§1) The open-field apparatus with a 70 cm square filed surrounded by a 15 cm high wall was used. The floor of the field was marked out into 49 equal grids (each grid 10 cm×10 cm). At 30 minutes after administration of drug intraperitoneally into mice, each mouse was placed in the field and was monitored for behavior for 30 minutes. Observed items were as follows. Numbers of crossing lines of the grids by mouse were set as “movement score” and numbers of slipping the hindlimbs were set as “falling score”. Each score was measured simultaneously. Ratio of both scores (falling score/movement score) is expressed as “falling index”.
Drugs used were D-serine ethyl ester, 10, 50 and 250 mg/kg, respectively, D-cycloserine, 2, 10 and 50 mg/kg, respectively, and L-serine ethyl ester, 250 mg/kg. Physiological saline was used as control. Each drug and saline were administered intraperitoneally.

[1] = tested on: genetic mutant ataxia mice, reeler mice; test: Effect on genetic mutant ataxia mice (reeler mice), open-field test; assay type: in vivo; conditions: 250 mg/kg i.p., mean ± standard error
Description: as §1
Genetic mutant ataxia mice, reeler mice (Heckroth, J. A. et al. J. Comp. Neurol., 279, 546-555, 1989 and Hamburgh, Dev. Biol., 8, 165-185, 1963) were purchased from Jackson Laboratory (Bar Harbor, Me., USA). Homozygotes were obtained by mating of heterozygote pairs. The homozygote male mice, 6-7 weeks old, were used for the experiments.
Experimental method for evaluation of ataxia was performed as same as in example 1. In the drug administered group, D-serine ethyl ester 250 mg/kg was administered intraperitoneally. For control group, physiological saline was administered.

[2] = mouse, in vivo, cited from earlier work
[3] = 50 mg/kg i.p., listed as D-Serine Ethyl ester
[4] = 250 mg/kg i.p., listed as D-Serine Ethyl ester
[5] = 10 mg/kg i.p., listed as D-Cycloserine
[6] = 50 mg/kg i.p., listed as D-Cycloserine

For CCOC(=O)[C@@H](N)CO [L-serine ethyl ester], the “Falling Index (falling score/movement score)” value (drug induced ataxia mice; 250 mg/kg i.p.) was “No improved action on ataxia”, the “Movement Score” value (drug induced ataxia mice; 250 mg/kg i.p.) was 129 ± 27 and the “Falling Index (falling score/movement score)” value (drug induced ataxia mice; 250 mg/kg i.p., listed as L-Serine Ethyl ester) was 0.80 ± 0.06.

In the case of CCOC(=O)[C@H](N)CO [D-serine ethyl ester], the “Falling Index (falling score/movement score)” value [1] is reported as “Improved effect on ataxia”, the “Movement Score” value [1] is reported as “No effect” and the “Falling Index (falling score/movement score)” value ([1]; listed as D-Serine Ethyl ester) is reported as 0.24 ± 0.05. The “Movement Score” value ([1]; listed as D-Serine Ethyl ester) was 232 ± 66, the “Falling Index (falling score/movement score)” value (drug induced ataxia mice; 10 mg/kg i.p.) was 0.88 ± 0.09 and the “Movement Score” value (drug induced ataxia mice; 10 mg/kg i.p.) was 386 ± 113. For the same compound, the “Falling Index (falling score/movement score)” value (drug induced ataxia mice; 50 mg/kg i.p.) was “Significant decrease”, the “Movement Score” value (drug induced ataxia mice; 50 mg/kg i.p.) was “no significant effect” and the “Falling Index (falling score/movement score)” value (drug induced ataxia mice; [3]) was 0.66 ± 0.08. For the same compound, the “Movement Score” value (drug induced ataxia mice; [3]) was 366 ± 96, the “Falling Index (falling score/movement score)” value (drug induced ataxia mice; 250 mg/kg i.p.) was “Significant decrease” and the “Movement Score” value (drug induced ataxia mice; 250 mg/kg i.p.) was “no significant effect”. For the same compound, the “Falling Index (falling score/movement score)” value (drug induced ataxia mice; [4]) was 0.56 ± 0.06 and the “Movement Score” value (drug induced ataxia mice; [4]) was 412 ± 99.

With N[C@@H]1CON=C1O [D-cycloserine] the “Falling Index (falling score/movement score)” value (drug induced ataxia mice; 2 mg/kg i.p.) was 0.80 ± 0.07, the “Movement Score” value (drug induced ataxia mice; 2 mg/kg i.p.) was 117 ± 54 and the “Falling Index (falling score/movement score)” value (drug induced ataxia mice; 10 mg/kg i.p.) was “Significant decrease”. For the same compound, the “Movement Score” value (drug induced ataxia mice; 10 mg/kg i.p.) was “no significant effect”, the “Falling Index (falling score/movement score)” value (drug induced ataxia mice; [5]) was 0.69 ± 0.09 and the “Movement Score” value (drug induced ataxia mice; [5]) was 194 ± 71. The “Falling Index (falling score/movement score)” value (drug induced ataxia mice; 50 mg/kg i.p.) was “Significant decrease”, the “Movement Score” value (drug induced ataxia mice; 50 mg/kg i.p.) was “no significant effect” and the “Falling Index (falling score/movement score)” value (drug induced ataxia mice; [6]) was 0.62 ± 0.04. The “Movement Score” value (drug induced ataxia mice; [6]) was 286 ± 98, the “improved action on ataxia” value (drug induced ataxia mice; below 50 mg/kg (i.p.) in mice) was “dose dependent manner” and the LD50 ([2]; ip) was “approx. 2,900 mg/kg”. For the same compound, the LD50 ([2]; iv) was “approx. 1,800 mg/kg”, the LD50 ([2]; po) was “approx. 5,300 mg/kg” and the LD50 ([2]; sc) was “approx. 2,800 mg/kg”.
